The source of these data is BindingDB's records for doi:10.1016/j.bmcl.2010.10.094 (Universit&#224, 2010).

This assay addresses carbonic anhydrase XII (human). Kind of assay: Inhibition of human recombinant CA12 catalytic domain by stopped-flow CO2 hydration method.
As usually defined, the Ki is the dissociation constant of the complex between target and ligand, obtained from inhibition or displacement. As to `CCCOc1cc2oc(=O)ccc2cc1C(C)=O` [6-acetyl-7-propoxy-2H-chromen-2-one], the inhibition constant Ki is above 100000 nM. With `CCOc1ccc2ccc(=O)oc2c1C(=O)CC` [7-ethoxy-8-propionyl-2H-chromen-2-one] the figure was 33.2 nM; with `CC(=O)c1c(OCCC23CC4CC(CC(C4)C2)C3)ccc2ccc(=O)oc12` [8-Acetyl-7-(2-adamantan-1-yl-ethoxy)-chromen-2-one], 31.5 nM; with `CC(=O)c1c(OCc2ccccc2)ccc2ccc(=O)oc12` [8-acetyl-7-(benzyloxy)-2H-chromen-2-one], 22.4 nM.

For the compound `CCOc1ccc2ccc(=O)oc2c1C(C)=O` [8-acetyl-7-ethoxy-2H-chromen-2-one], the Ki was determined as 1 nM.

As to `CCCOc1ccc2ccc(=O)oc2c1C(C)=O` [8-acetyl-7-propoxy-2H-chromen-2-one], the Ki was determined as 0.98 nM.
